Measurements as given in patent US10500166B2, “Methods for the treatment of erectile dysfunction using fispemifene” (QUATRX PHARMACEUTICALS, priority 2007, dated 2019).

Experiments:
serum testosterone = experiment: Phase I repeated dose study 101-50202: serum total testosterone; assay type: in vivo, human; settings: for increase of the mean serum total testosterone compared to baseline: 28 days, healthy men
Text: Fispemifene has been studied in two phase I studies in humans—in a single dose and a repeated dose study. Effect of fispemifene on hormone levels was one main focus of the repeated dose study. The phase I repeated dose study (number 101-50202) was a randomized, double-blind, placebo-controlled 28-day dose-escalation study performed in 31 healthy, elderly men, aged 50-68 years. The main objective of the study was to investigate the tolerability, safety and pharmacokinetics of fispemifene after repeated oral doses, but the study focused also on the effects of fispemifene on serum free and total testosterone, estradiol, and other relevant hormones. The fispemifene doses 10, 30, 100 and 300 mg per day and placebo were administered once every morning as capsules containing 10 mg or 100 mg of fispemifene, or placebo.
The variables for safety and tolerability were adverse events, vital signs, 12-lead ECG, clinical laboratory evaluations, physical examination, ultrasound examinations (mammary glands) and inhibin B. For pharmacokinetics, the concentrations of fispemifene and its metabolite(s) were to be evaluated. For pharmacodynamics, serum concentrations of FSH, LH, estradiol, testosterone, SHBG, prolactin, aldosterone, cortisol and TSH before and during treatment were measured and compared with the concentrations in the placebo-group.

[1] = tested on: FSH (follicle stimulating hormone); experiment: Example 3 study in hypogonadal men: serum FSH (ITT); assay type: in vivo, human; settings: for FSH % Change from Baseline to Week 2, Max / FSH % Change from Baseline to Week 2, Mean ± SD / FSH % Change from Baseline to Week 2, Median / FSH % Change from Baseline to Week 2, Min / FSH % Change from Baseline to Week 4, Max / FSH % Change from Baseline to Week 4, Mean ± SD / FSH % Change from Baseline to Week 4, Median / FSH % Change from Baseline to Week 4, Min / FSH % Change from Baseline to Week 6, Max / FSH % Change from Baseline to Week 6, Mean ± SD / FSH % Change from Baseline to Week 6, Median / FSH % Change from Baseline to Week 6, Min: (Week minus Baseline) divided by Baseline, LOCF; for FSH % Change from Baseline to Week 2, Max / FSH % Change from Baseline to Week 2, Mean ± SD / FSH % Change from Baseline to Week 2, Median / FSH % Change from Baseline to Week 2, Min / FSH % Change from Baseline to Week 4, Max / FSH % Change from Baseline to Week 4, Mean ± SD / FSH % Change from Baseline to Week 4, Median / FSH % Change from Baseline to Week 4, Min / FSH % Change from Baseline to Week 6, Max / FSH % Change from Baseline to Week 6, Mean ± SD / FSH % Change from Baseline to Week 6, Median / FSH % Change from Baseline to Week 6, Min / FSH Actual Value at Baseline (Visit 2), Max / FSH Actual Value at Baseline (Visit 2), Mean ± SD / FSH Actual Value at Baseline (Visit 2), Median / FSH Actual Value at Baseline (Visit 2), Min: ITT
Description: A randomized, double-blind, placebo controlled, parallel-group study of once-daily doses of fispemifene (100, 200, and 300 mg/day) given for 4 weeks was conducted in a population of hypogonadal men. Subjects were required to meet all of the following inclusion criteria at screening and prior to randomization to be eligible for the study:
There were 77 subjects total. The number of subjects randomized to the 100 mg fispemifene, 200 mg fispemifene, 300 mg fispemifene, and placebo arms were 21, 21, 19, and 16, respectively.
Subjects were randomly assigned to one of four treatment groups in a 1:1:1:1 ratio: • Treatment A (100 mg): fispemifene 100 mg+placebo+placebo; • Treatment B (200 mg): fispemifene 100 mg+fispemifene 100 mg+placebo; • Treatment C (300 mg): fispemifene 100 mg+fispemifene 100 mg+fispemifene 100 mg; and • Treatment D (Placebo): placebo+placebo+placebo.
Subjects took one dose (three capsules) of study medication once a day at home for 4 weeks. Capsules were to be taken in the morning immediately after breakfast, with the exception of the morning of the Week 4 visit. Capsules were not to be taken on the morning of the Week 4 visit because trough plasma levels of fispemifene were determined by a blood sample taken at this visit. Each subject was randomly assigned to treatment with one of the 3 different dose regimens of fispemifene or placebo vehicle. Each subject received a 4 week supply of study drug.
Blood samples were taken from the subjects within 1 week prior to dosing with study drug to establish baseline values; after 2 and 4 weeks of randomization; and 2 weeks after the last dose of study drug. Serum was prepared from those samples and used to determine the mean % change from baseline in total testosterone, free testosterone, SHBG (sex hormone-binding globulin), DHT (dihydrotestosterone), E2 (estradiol), LH (luteinizing hormone), FSH (follicle stimulating hormone), and inhibin B.
3. Percent change from baseline in SHBG, DHT, E2, LH, FSH, inhibin B, and testosterone/E2 ratio at Weeks 2, 4, and 6.

OCCOCCOc1ccc(/C(=C(/CCCl)c2ccccc2)c2ccccc2)cc1 [Fispemifene, (Z)-2-{2-[4-(4-Chloro-1,2-diphenylbut-1-enyl)phenoxy]ethoxy}ethanol]
Serum total testosterone, Mean (serum testosterone; 10 mg/day, Baseline): 19.33 nmol/L | Serum total testosterone, Mean (serum testosterone; 10 mg/day, Day 8): 19.83 nmol/L | Serum total testosterone, Mean (serum testosterone; 10 mg/day, Day 15): 20.50 nmol/L | Serum total testosterone, Mean (serum testosterone; 10 mg/day, Day 22): 22.00 nmol/L | Serum total testosterone, Mean (serum testosterone; 10 mg/day, Day 28): 17.40 nmol/L | Serum total testosterone, Mean (serum testosterone; 30 mg/day, Baseline): 15.00 nmol/L | Serum total testosterone, Mean (serum testosterone; 30 mg/day, Day 15): 15.00 nmol/L | Serum total testosterone, Mean (serum testosterone; 30 mg/day, Day 22): 15.80 nmol/L | Serum total testosterone, Mean (serum testosterone; 30 mg/day, Day 28): 14.80 nmol/L | testosterone compared with placebo (serum testosterone; 100 mg and 300 mg): increased statistically significantly | subjects in whom increase in testosterone serum concentration was seen (serum testosterone; 100 mg or 300 mg, 28-day treatment period): all the subjects | increase of the mean serum total testosterone compared to baseline (serum testosterone; 100 mg/day): 32% | increase of the mean serum total testosterone compared to baseline (serum testosterone; 100 mg/day, listed as fispemifene): about 32% | Serum total testosterone, Mean (serum testosterone; 100 mg/day, Baseline): 14.27 nmol/L | Serum total testosterone, Mean (serum testosterone; 100 mg/day, Day 8): 18.67 nmol/L | Serum total testosterone, Mean (serum testosterone; 100 mg/day, Day 15): 19.00 nmol/L | Serum total testosterone, Mean (serum testosterone; 100 mg/day, Day 22): 17.83 nmol/L | Serum total testosterone, Mean (serum testosterone; 100 mg/day, Day 28): 18.83 nmol/L | men with serum testosterone level above the upper limit of normal range (33 nmol/L) during treatment (serum testosterone; 300 mg/day (highest dose)): Two out of six | increase of the mean serum total testosterone compared to baseline (serum testosterone; 300 mg/day): 75% | increase of the mean serum total testosterone compared to baseline (serum testosterone; 300 mg/day, listed as fispemifene): about 75% | Serum total testosterone, Mean (serum testosterone; 300 mg/day, Baseline): 15.67 nmol/L | Serum total testosterone, Mean (serum testosterone; 300 mg/day, Day 8): 23.17 nmol/L | Serum total testosterone, Mean (serum testosterone; 300 mg/day, Day 15): 27.00 nmol/L | Serum total testosterone, Mean (serum testosterone; 300 mg/day, Day 22): 27.83 nmol/L | Serum total testosterone, Mean (serum testosterone; 300 mg/day, Day 28): 27.50 nmol/L | effect on serum concentration of testosterone (serum testosterone; during the 28 days of treatment): increased | effect on serum testosterone concentration (serum testosterone; healthy older men, within 28 days from the start of treatment): clinically and statistically significant and dose dependent increase | FSH % Change from Baseline to Week 2, Max ([1]; 100 mg): 0.76 | FSH % Change from Baseline to Week 2, Mean ± SD ([1]; 100 mg): 0.29 ± 0.222 | FSH % Change from Baseline to Week 2, Median ([1]; 100 mg): 0.27 | FSH % Change from Baseline to Week 2, Min ([1]; 100 mg): −0.13 | FSH % Change from Baseline to Week 4, Max ([1]; 100 mg): 1.12 | FSH % Change from Baseline to Week 4, Mean ± SD ([1]; 100 mg): 0.28 ± 0.296 | FSH % Change from Baseline to Week 4, Median ([1]; 100 mg): 0.24 | FSH % Change from Baseline to Week 4, Min ([1]; 100 mg): −0.09 | FSH % Change from Baseline to Week 6, Max ([1]; 100 mg): 0.610 | FSH % Change from Baseline to Week 6, Mean ± SD ([1]; 100 mg): 0.043 ± 0.2302 | FSH % Change from Baseline to Week 6, Median ([1]; 100 mg): 0.000 | FSH % Change from Baseline to Week 6, Min ([1]; 100 mg): −0.345 | FSH Actual Value at Baseline (Visit 2), Max ([1]; 100 mg): 14.90 IU/L | FSH Actual Value at Baseline (Visit 2), Mean ± SD ([1]; 100 mg): 649 ± 3.738 IU/L | FSH Actual Value at Baseline (Visit 2), Median ([1]; 100 mg): 5.00 IU/L | FSH % Change from Baseline to Week 2, Max ([1]; 200 mg): 0.60 | FSH % Change from Baseline to Week 2, Mean ± SD ([1]; 200 mg): 0.33 ± 0.147 | FSH % Change from Baseline to Week 2, Median ([1]; 200 mg): 0.28 | FSH % Change from Baseline to Week 2, Min ([1]; 200 mg): 0.03 | FSH % Change from Baseline to Week 4, Max ([1]; 200 mg): 0.58 | FSH % Change from Baseline to Week 4, Mean ± SD ([1]; 200 mg): 0.32 ± 0.157 | FSH % Change from Baseline to Week 4, Median ([1]; 200 mg): 0.33 | FSH % Change from Baseline to Week 4, Min ([1]; 200 mg): 0.02 | FSH % Change from Baseline to Week 6, Max ([1]; 200 mg): 0.442 | FSH % Change from Baseline to Week 6, Mean ± SD ([1]; 200 mg): 0.050 ± 0.1657 | FSH % Change from Baseline to Week 6, Median ([1]; 200 mg): 0.022 | FSH % Change from Baseline to Week 6, Min ([1]; 200 mg): −0.167 | FSH Actual Value at Baseline (Visit 2), Max ([1]; 200 mg): 14.20 IU/L | FSH Actual Value at Baseline (Visit 2), Mean ± SD ([1]; 200 mg): 5.91 ± 3.054 IU/L | FSH Actual Value at Baseline (Visit 2), Median ([1]; 200 mg): 5.20 IU/L | FSH Actual Value at Baseline (Visit 2), Min ([1]; 200 mg): 2.40 IU/L | FSH % Change from Baseline to Week 2, Max ([1]; 300 mg): 0.78 | FSH % Change from Baseline to Week 2, Mean ± SD ([1]; 300 mg): 0.36 ± 0.233 | FSH % Change from Baseline to Week 2, Median ([1]; 300 mg): 0.31 | FSH % Change from Baseline to Week 2, Min ([1]; 300 mg): −0.21 | FSH % Change from Baseline to Week 4, Max ([1]; 300 mg): 0.60 | FSH % Change from Baseline to Week 4, Mean ± SD ([1]; 300 mg): 0.29 ± 0.206 | FSH % Change from Baseline to Week 4, Median ([1]; 300 mg): 0.28 | FSH % Change from Baseline to Week 4, Min ([1]; 300 mg): −0.24 | FSH % Change from Baseline to Week 6, Max ([1]; 300 mg): 0.395 | FSH % Change from Baseline to Week 6, Mean ± SD ([1]; 300 mg): −0.010 ± 0.1786 | FSH % Change from Baseline to Week 6, Median ([1]; 300 mg): −0.043 | FSH % Change from Baseline to Week 6, Min ([1]; 300 mg): −0.255 | FSH Actual Value at Baseline (Visit 2), Max ([1]; 300 mg): 12.30 IU/L | FSH Actual Value at Baseline (Visit 2), Mean ± SD ([1]; 300 mg): 5.08 ± 2.931 IU/L | FSH Actual Value at Baseline (Visit 2), Median ([1]; 300 mg): 4.10 IU/L | FSH Actual Value at Baseline (Visit 2), Min ([1]; 300 mg): 1.80 IU/L | effect on serum FSH levels ([1]; hypogonadal men, 100-300 mg/day for 4 weeks): increased
